The conditions of data set [1]: rat, in vivo, cited from earlier work; for p.o. AUC0-inf / p.o. Cmax: po, 25 mg/kg.
The next data set has as its target MbtA (Mycobacterium tuberculosis, UniProt P71716). In kind it is biochemical. Conditions: for fold more potent in MbtA inhibition than the 3′-α-fluoro diastereomer: 14 vs 15, 16 vs 17; for Ki: read-out: Ki^app, apparent Ki against MbtA.
For data set [2], the system named is M. tuberculosis strain H37Rv. The format is cell-based, Mycobacterium tuberculosis. Particulars: for fold more potent in MIC than the 3′-α-fluoro diastereomer: 14 vs 15, 16 vs 17, M. tuberculosis H37Rv.
The conditions of data set [3]: rat, in vivo; for i.v. AUC0-inf / i.v. CL / i.v. t1/2: iv, 2.5 mg/kg; for p.o. AUC0-inf / p.o. Cmax: po, 25 mg/kg.
Data set [4] can be described thus: Single dose pharmacokinetics in cannulated rats.

Structures are written as SMILES. Like-named read-outs stand apart in the source and are kept apart here.

The MIC is the least concentration at which growth counts as inhibited. Read a low MIC as a more susceptible organism.

MbtA, sequence (P71716 whole entry): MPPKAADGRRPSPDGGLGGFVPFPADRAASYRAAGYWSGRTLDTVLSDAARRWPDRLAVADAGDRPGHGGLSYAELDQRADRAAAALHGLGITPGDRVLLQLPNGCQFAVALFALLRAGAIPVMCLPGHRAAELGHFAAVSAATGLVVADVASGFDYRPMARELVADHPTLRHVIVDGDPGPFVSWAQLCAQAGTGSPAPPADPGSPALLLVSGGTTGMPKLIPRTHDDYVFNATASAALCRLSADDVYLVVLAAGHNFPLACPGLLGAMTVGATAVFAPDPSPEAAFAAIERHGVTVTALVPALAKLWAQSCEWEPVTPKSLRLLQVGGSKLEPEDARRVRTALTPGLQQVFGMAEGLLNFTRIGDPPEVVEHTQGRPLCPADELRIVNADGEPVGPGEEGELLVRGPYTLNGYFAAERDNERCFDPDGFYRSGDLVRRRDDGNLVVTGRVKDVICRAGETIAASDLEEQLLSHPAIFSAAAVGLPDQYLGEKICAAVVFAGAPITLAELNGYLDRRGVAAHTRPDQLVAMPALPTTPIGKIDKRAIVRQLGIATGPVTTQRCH

`Nc1ncnc2c1ncn2[C@@H]1O[C@H](CNS(=O)(=O)NC(=O)c2ccccc2O)[C@@H](O)[C@H]1O` [compound 11]: in data set [1] (iv, 2.5 mg/kg), the “i.v. AUC0-inf” value is given as 304 ± 60 μg.min.mL^–1, the “i.v. CL” value is 8.4 ± 1.9 mL.min^–1.kg^–1 and the “i.v. t1/2” value is 10.6 ± 0.7 min. Also, in data set [1], the “p.o. AUC0-inf” value was 100 ± 14 μg.min.mL^–1, the “p.o. Cmax” value is 0.70 ± 0.07 μg.mL^–1 and the “F (relative oral bioavailability)” value is 3.5 ± 0.2%.

With `CCN(CC)CC.Nc1ncnc2c1ncn2[C@@H]1O[C@H](CNS(=O)(=O)NC(=O)c2ccccc2O)[C@H](F)[C@H]1F` [compound 16, 9-[2,3,5-Trideoxy-2,3-difluoro-5-{N-(N-2-hydroxybenzoyl)sulfamoyl}amino-β-D-xylofuranosyl]adenine Triethylammonium Salt], at MbtA, the “fold more potent in MbtA inhibition than the 3′-α-fluoro diastereomer” value is listed as around 100 fold and the Ki stood at 1.4 ± 0.3 nM. For the same compound, in data set [2], the MIC is 0.78 µM and the “fold more potent in MIC than the 3′-α-fluoro diastereomer” value is listed as “ca. 50 fold”. In data set [3], the “F (relative oral bioavailability)” value came out at 11.4 ± 0.3%, the “i.v. AUC0-inf” value was determined as 312 ± 54 μg.min.mL^–1, the “i.v. CL” value was determined as 8.5 ± 1.6 mL.min^–1.kg^–1 and the “i.v. t1/2” value was determined as 17.2 ± 1.3 min. In data set [3], the “p.o. AUC0-inf” value is 362 ± 85 μg.min.mL^–1 and the “p.o. Cmax” value is listed as 0.97 ± 0.42 μg.mL^–1.

As to `CCN(CC)CC.Nc1ncnc2c1ncn2[C@@H]1O[C@H](CNS(=O)(=O)NC(=O)c2ccccc2O)[C@@H](O)[C@H]1F` [compound 12, 9-[2,5-Dideoxy-2-fluoro-5-{N-(N-2-hydroxybenzoyl)sulfamoyl}amino-β-D-ribofuranosyl]adenine Triethylammonium Salt], the Ki on MbtA lay within 1.7 to 1.8 nM. Besides, the Ki at MbtA (listed as C00001) worked out at 1.7 ± 0.1 nM. The MIC in data set [2] was 0.19 µM. In data set [3], the “F (relative oral bioavailability)” value is on record as 1.8 ± 0.9%, the “i.v. AUC0-inf” value is on record as 1040 ± 330 μg.min.mL^–1, the “i.v. CL” value turned out to be 2.5 ± 0.9 mL.min^–1.kg^–1 and the “i.v. t1/2” value turned out to be 32.5 ± 7.4 min. Moreover, in data set [3], the “p.o. AUC0-inf” value amounted to 187 ± 11 μg.min.mL^–1 and the “p.o. Cmax” value is 0.46 ± 0.30 μg.mL^–1.

On to `CCN(CC)CC.Nc1ncnc2c1ncn2[C@@H]1O[C@H](CNS(=O)(=O)NC(=O)c2ccccc2O)[C@@H](O)[C@@H]1F` [compound 13, 9-[2,5-Dideoxy-2-fluoro-5-{N-(N-2-hydroxybenzoyl)sulfamoyl}amino-β-D-arabinofuranosyl]adenine Triethylammonium Salt], for which, on MbtA, the Ki lay in the range of 1.7 to 1.8 nM. For the same compound, the Ki at MbtA (listed as C00003) came out at 1.8 ± 0.1 nM. The MIC in data set [2] worked out at 0.15 µM. For the same compound, in data set [3], the “F (relative oral bioavailability)” value is 4.7 ± 1.1%, the “i.v. AUC0-inf” value was 913 ± 65 μg.min.mL^–1, the “i.v. CL” value amounted to 2.7 ± 0.2 mL.min^–1.kg^–1 and the “i.v. t1/2” value turned out to be 31.7 ± 1.9 min. Also, in data set [3], the “p.o. AUC0-inf” value stood at 422 ± 70 μg.min.mL^–1 and the “p.o. Cmax” value came to 1.09 ± 0.03 μg.mL^–1.

For `Nc1ncnc2c1ncn2[C@@H]1O[C@H](COS(=O)(=O)NC(=O)c2ccccc2O)[C@@H](O)[C@H]1O` [compound 10, 5′-O-[N-(salicyl)sulfamoyl]adenosine], in data set [1] (iv, 2.5 mg/kg), the “i.v. AUC0-inf” value is reported as 519 ± 115 μg.min.mL^–1 and the “i.v. t1/2” value was 11.2 ± 2.2 min. Further, in data set [1], the “p.o. AUC0-inf” value is on record as 66 ± 41 μg.min.mL^–1, the “p.o. Cmax” value is listed as 0.40 ± 0.20 μg.mL^–1 and the “F (relative oral bioavailability)” value is 1.3 ± 0.7%.

In the case of `CCN(CC)CC.Nc1ncnc2c1ncn2[C@@H]1O[C@H](CNS(=O)(=O)NC(=O)c2ccccc2O)[C@H](F)[C@H]1O` [compound 14, 9-[3,5-Dideoxy-3-fluoro-5-{N-(N-2-hydroxybenzoyl)sulfamoyl}amino-β-D-xylofuranosyl]adenine Triethylammonium Salt], on MbtA, the “fold more potent in MbtA inhibition than the 3′-α-fluoro diastereomer” value is on record as “approximately 10 fold” and the Ki worked out at 0.6 ± 0.3 nM. In addition, in data set [2], the MIC stood at 0.60 µM and the “fold more potent in MIC than the 3′-α-fluoro diastereomer” value is on record as “fourfold”. In data set [3], the “F (relative oral bioavailability)” value came to 2.3 ± 0.4%, the “i.v. AUC0-inf” value turned out to be 366 ± 33 μg.min.mL^–1, the “i.v. CL” value is 6.9 ± 0.3 mL.min^–1.kg^–1 and the “i.v. t1/2” value came to 17.4 ± 1.4 min. In addition, in data set [3], the “p.o. AUC0-inf” value is 84 ± 12 μg.min.mL^–1 and the “p.o. Cmax” value was 0.64 ± 0.22 μg.mL^–1.

For the compound `CCN(CC)CC.Nc1ncnc2c1ncn2[C@@H]1O[C@H](CNS(=O)(=O)NC(=O)c2ccccc2O)[C@@H](F)[C@H]1O` [compound 15, 9-[3,5-Dideoxy-3-fluoro-5-{N-(N-2-hydroxybenzoyl)sulfamoyl}amino-β-D-ribofuranosyl]adenine Triethylammonium Salt], the Ki at MbtA stood at 6.4 ± 0.3 nM. For the same compound, the MIC in data set [2] was 2.3 µM. In data set [3], the “F (relative oral bioavailability)” value amounted to 3.5 ± 0.2%, the “i.v. AUC0-inf” value was 807 ± 78 μg.min.mL^–1, the “i.v. CL” value was 3.1 ± 0.3 mL.min^–1.kg^–1 and the “i.v. t1/2” value was 37.0 ± 1.7 min. In data set [3], the “p.o. AUC0-inf” value was found to be 266 ± 2 μg.min.mL^–1 and the “p.o. Cmax” value is reported as 0.92 ± 0.04 μg.mL^–1.

Turning to `CCN(CC)CC.Nc1ncnc2c1ncn2[C@@H]1O[C@H](CNS(=O)(=O)NC(=O)c2ccccc2O)[C@@H](F)[C@H]1F` [compound 17, 9-[2,3,5-Trideoxy-2,3-difluoro-5-{N-(N-2-hydroxybenzoyl)sulfamoyl}amino-β-D-ribofuranosyl]adenine Triethylammonium Salt], on MbtA, the Ki was found to be 139 ± 10 nM. Besides, the MIC in data set [2] stood at 37 µM. Moreover, in data set [3], the “F (relative oral bioavailability)” value was found to be 5.3 ± 1.3%, the “i.v. AUC0-inf” value is recorded as 10100 ± 2200 μg.min.mL^–1, the “i.v. CL” value was determined as 0.24 ± 0.06 mL.min^–1.kg^–1 and the “i.v. t1/2” value amounted to 267 ± 36 min. In data set [3], the “p.o. AUC0-inf” value turned out to be 4730 ± 540 μg.min.mL^–1 and the “p.o. Cmax” value is on record as 5.99 ± 0.56 μg.mL^–1. Moreover, in data set [4], the “fold increase in half-life compared to SAL-AMS (10)” value is on record as “ca. 25 fold”. In addition, in data set [4] (p.o. 25 mg/kg), the “fold higher Cmax compared to SAL-AMS (10)” value was found to be 15 fold, the “fold increase in F% compared to SAL-AMS (10)” value is listed as “fourfold” and the “fold increased oral exposure (oral AUC) compared to SAL-AMS (10)” value was “ca. 75 fold”.

The values above are taken from article PMC4674167 (The Journal of organic chemistry, 2015).
